From US5659012A, “Peptide which binds SH2 domains of protein tyrosine phosphatase SH-PTP1” (Whitehead Institute for Biomedical Research, priority 1995, dated 1997)

Assays:
[1] = test system: 32D cells expressing the wt EPO-R; test: Proliferation assay (3H-Thymidine incorporation), EPO-dependent proliferation; type: cell-based; details: pools of 32D cells expressing wt EPO-R
Experimental: (§1) FIG. 2 is a graphic illustration of EPO-dependent proliferation of 32D cells expressing the wt EPO-R and the EPO-R mutant Y429, 431F. […] Each data point represents the mean of triplicate determinations±standard deviation.
(§2) To assess the role of SH-PTP1 in regulating proliferative signals generated by the EPO-R, the proliferation of 32D cells expressing wt EPO-R or EPO-R Y429,431F was measured. […] When grown in EPO, the half-maximal proliferation of pools of 32D cells expressing the wt EPO-R required 0.25 units EPO/ml and maximal proliferation required about 1 units/ml (FIG. 2). […] Pools of 32D cells expressing the mutant EPO-R Y429,431F achieved half-maximal proliferation in as little as 0.025 units EPO/ml, reaching a maximum rate at 0.1 units/ml (FIG. 2). At the highest EPO concentrations employed, the rate of proliferation of cell pools expressing the wt EPO-R or the EPO-R mutant Y429,431F was the same.
(§3) Proliferation assays were performed in 96 well plates with 200 μl/well. 5×10^4 32D cells/ml were seeded in the presence of indicated amounts of cytokines (EPO O--5 units/ml; IL3 0-100 units/ml). After 48 hours, 1 μCi 3H-Thymidine (DuPont NEN)/well was added for another 3 hours. The labeled cells were then harvested by a 96 well plate harvester (Scantron Instruments Inc.) and the amount of radioactively labeled DNA was quantitated in a scintillation counter.

[2] = test system: 32D cells expressing the EPO-R mutant Y429,431F; test: as above; type: cell-based
Experimental: as §1, §2, §3

[3] = pools of 32D cells expressing mutant EPO-R Y429,431F

Erythropoietin [EPO]
EPO required for maximal proliferation [1]: about 1 units/ml | EPO required for half-maximal proliferation ([1]; 48 h + 3 h 3H-Thymidine): 0.25 units EPO/ml | amount of EPO allowing proliferation relative to the normal amount ([2]; mutant EPO-R unable to bind SH-PTP1 versus wt EPO-R): one-fifth to one-tenth | EPO giving half-maximal proliferation [2, 3]: 0.025 units EPO/ml | EPO giving maximum rate of proliferation [2, 3]: 0.1 units/ml
